# System: apple tree (variety: Fuji)
# Experiment: Defloration effect (percentage of remaining fruits) after spraying a flowering apple branch
# Type: in vivo
# Conditions: Low temperature condition (14.6° C.); ethephon alone 100 ppm, compound (I) 0 ppm; 30 days after spraying
# Excerpt: The ME preparation and ethephon preparation produced as described above were mixed together to obtain an application solution.
# A branch having about 50 bunches of flowers was selected from a 13-year old apple tree (variety: Fuji). The application solution produced as described above was sprayed over the whole branch with a knapsack sprayer on the day after the full blossom of the central flower. The evaluation results are shown by percentages of remaining fruits (both central and lateral fruits) calculated by the formula shown below. The phytotoxicity was determined on the basis of defoliation, discolored leaves, state of leaves and also state of russet, and the results were classified into the following 5 ranks (− to +++).
# Percentage of remaining fruits ≈ number of normal fruits on the test day/number of flowers on the treatment day × 100
smiles,measurement,value
"O=P(O)(O)CCCl [Ethephon, 2-chloroethylphosphonic acid]",Fruit setting rate (%) Central fruit,83%
same,Fruit setting rate (%) Lateral fruit,42%

# From US6429173B1, “Defloration agent for apple trees” (Agro-Kanesho Co., Ltd., priority 1998, dated 2002)
